# Reference: DBAASP
# Assays:
# Assay in all cases: ≥ marks a high value that may be exact or a test limit, other limits are often not marked, values filed in µg/mL are converted to µM
# Escherichia coli = test system: Escherichia coli
# Pasteurella multocida = test system: Pasteurella multocida
# Bacillus cereus = test system: Bacillus cereus
# Listeria innocua = test system: Listeria innocua
# Staphylococcus aureus = test system: Staphylococcus aureus
# Leuconostoc lactis = test system: Leuconostoc lactis
# Micrococcus luteus = test system: Micrococcus luteus
# [1] = test system: Batrachochytrium dendrobatidis
# Streptococcus uberis = test system: Streptococcus uberis
# [2] = test system: Staphylococcus epidermidis
# [3] = test system: Cronobacter sakazakii ATCC 29544
# [4] = test system: Bacillus subtilis ATCC 23857
# [5] = test system: Staphylococcus aureus ATCC 25923
# [6] = test system: Staphylococcus aureus ATCC 29213
# [7] = test system: Staphylococcus epidermidis ATCC 12228
# [8] = test system: Candida krusei ATCC 20029
# [9] = test system: Cryptococcus gattii ATCC 32608
# [10] = test system: Cryptococcus neoformans ATCC 24067
# [11] = test system: Staphylococcus aureus ATCC 33591
# [12] = test system: Escherichia coli ATCC 25922
# [13] = test system: Pseudomonas aeruginosa ATCC 27853
# [14] = test system: Acinetobacter baumannii ATCC 19606
# [15] = test system: Klebsiella aerogenes ATCC 13048
# [16] = test system: Staphylococcus aureus ATCC 29231
# [17] = test system: Acinetobacter baumannii ATCC 7978
# [18] = test system: Staphylococcus aureus MW2
structure (smiles),measurement,setting,value
CC[C@H](C)[C@H](NC(=O)[C@H](CC(=O)O)NC(=O)[C@H](CC(C)C)NC(=O)[C@H](CC(C)C)NC(=O)CN)C(=O)N[C@H](C(=O)N[C@@H](CCCCN)C(=O)N[C@@H](CCCCN)C(=O)N[C@H](C(=O)N[C@H](C(=O)NCC(=O)N[C@@H](C)C(=O)N[C@@H](Cc1ccccc1)C(=O)NCC(=O)N[C@@H](CO)C(=O)N[C@@H](CC(C)C)C(N)=O)C(C)C)C(C)C)C(C)C [GLLDIVKKVVGAFGSL],MIC,Escherichia coli,> 61.9 µM
same,MIC,Pasteurella multocida,≥ 61.9 µM
same,MIC,Bacillus cereus,30.9 µM
same,MIC,Listeria innocua,3.71 µM
same,MIC,Staphylococcus aureus,> 61.9 µM
same,MIC,Leuconostoc lactis,3.71 µM
same,MIC,Micrococcus luteus,≥ 61.9 µM
same,MIC,[1],≥ 200 µM
same,MIC,Streptococcus uberis,≥ 61.9 µM
same,MIC,[2],30.9 µM
CC[C@H](C)[C@H](N)C(=O)N[C@@H](CC(C)C)C(=O)NCC(=O)N[C@H](C(=O)N[C@H](C(=O)N[C@@H](CC(C)C)C(=O)NCC(=O)N[C@@H](CC(C)C)C(=O)N[C@@H](CC(C)C)C(=O)N[C@@H](CCCCN)C(=O)N[C@@H](Cc1ccccc1)C(=O)N[C@@H](CC(C)C)C(N)=O)[C@@H](C)CC)[C@@H](C)O [ILGTILGLLKFL],MIC,[3],≥ 256 µM
same,MIC,[4],4 µM
same,MIC,[5],4 µM
same,MIC,[6],4 µM
same,MIC,[7],2 µM
CC[C@H](C)[C@H](NC(C)=O)C(=O)N[C@@H](Cc1c[nH]c2ccccc12)C(=O)N[C@@H](CC(C)C)C(=O)N[C@H](C(=O)N[C@@H](CCCCN)C(=O)N[C@@H](C)C(=O)N[C@@H](CC(C)C)C(=O)N[C@@H](CCCCN)C(=O)N[C@@H](Cc1ccccc1)C(=O)N[C@@H](CC(C)C)C(=O)NCC(=O)N[C@@H](CCCCN)C(=O)N[C@@H](CC(N)=O)C(=O)N[C@@H](CC(C)C)C(=O)NCC(=O)N[C@@H](CCCCN)C(N)=O)[C@@H](C)O [IWLTKALKFLGKNLGK],MIC,[8],30.5 µM
same,MIC,[9],3.38 µM
same,MIC,[10],8.55 µM
same,MIC,[11],4.27 µM
same,MIC,[12],3.01 µM
same,MIC,[13],24.2 µM
same,MIC,[7],2.13 µM
same,MIC,[14],2.68 µM
CC[C@H](C)[C@H](NC(=O)[C@H](CCCCN)NC(=O)[C@H](Cc1c[nH]c2ccccc12)NC(=O)[C@@H](N)CC(C)C)C(=O)NCC(=O)N[C@@H](CCCCN)C(=O)N[C@@H](CCCCN)C(=O)N[C@H](C(=O)N[C@@H](Cc1c[nH]c2ccccc12)C(=O)N[C@@H](CCCN=C(N)N)C(=O)N[C@H](C(=O)NCC(=O)O)C(C)C)[C@@H](C)CC [LWKIGKKIWRVG],MIC,[15],≥ 86.3 µM
same,MIC,[16],≥ 86.3 µM
same,MIC,[17],≥ 86.3 µM
same,MIC,[18],≥ 86.3 µM
